Results published in patent publication US6316414A, “Somatostatin analogs for the treatment of cancer” (Dabur Research Foundation, priority 2000, dated 2001).

System: human colon adenocarcinoma (PTC) xenografts
Experiment: In vivo antitumor activity on PTC xenografts in nude mice
Design: species or system Balb/c athymic mice
Details: for percentage inhibition of tumor growth as compared to controls: 8.5 μg/100 μl intravenously twice a day for 10 days
Method: The antitumor activity of SEQ ID NO:2 and SEQ ID NO:3 was studied in human colon adenocarcinoma (PTC) xenografts in nude mice. PTC tumor xenografts were grown in Balb/c athymic mice by subcutaneous inoculation of a single cell suspension of PTC cells (15×10^6 cells/100 μl). The tumor bearing animals were divided into 3 groups of three animals each including one group comprising untreated control animals. Treatment with novel somatostatin analogs was initiated when the average tumor volumes, as measured using a vernier caliper, were between 400-800 mm^3. Solutions of SEQ ID NO:2 and SEQ ID NO:3 were prepared at a concentration of 85 μg/ml and intravenously administered to the assigned group of tumor bearing animals at a dose of 8.5 μg/100 μl twice a day so that the total dose of […] was administered to each animal. The treatment was continued for a period of 10 days.
The antitumor activity of the compounds was monitored by measuring tumor volumes every fourth day using the formula W*W*L*[…] (W=smaller diameter, L=larger diameter). The percentage inhibition of tumor growth was calculated using the formula (1-tumor volume-treated/tumor volume control)* 100.

[1] = day 0, average of three animals
[2] = day 9, average of three animals
[3] = day 13, average of three animals
[4] = day 18, average of three animals
[5] = day 21, average of three animals

## D-Phe-Cys-Tyr-D-Trp-Orn-Deg-Pen-Thr-NH2 [SEQ ID NO: 2]
Animal IV, day 0
  tumor volume, individual animal: 0 mm^3
Animal IV, day 9
  tumor volume, individual animal: 480 mm^3
Animal IV, day 13
  tumor volume, individual animal: 1254 mm^3
Animal IV, day 18
  tumor volume, individual animal: 1965 mm^3
Animal IV, day 21
  tumor volume, individual animal: 491 mm^3
Animal V, day 0
  tumor volume, individual animal: 0 mm^3
Animal V, day 9
  tumor volume, individual animal: 678 mm^3
Animal V, day 13
  tumor volume, individual animal: 2196 mm^3
Animal V, day 18
  tumor volume, individual animal: 5240 mm^3
Animal V, day 21
  tumor volume, individual animal: 4839 mm^3
Animal VI, day 0
  tumor volume, individual animal: 0 mm^3
Animal VI, day 9
  tumor volume, individual animal: 806 mm^3
Animal VI, day 13
  tumor volume, individual animal: 2333 mm^3
Animal VI, day 18
  tumor volume, individual animal: 4453 mm^3
Animal VI, day 21
  tumor volume, individual animal: 6250 mm^3
[1]
  tumor volume, Avg: 0 mm^3
[2]
  tumor volume, Avg: 654 mm^3
[3]
  tumor volume, Avg: 1927 mm^3
[4]
  tumor volume, Avg: 3886 mm^3
[5]
  tumor volume, Avg: 3860 mm^3
Day 21
  percentage inhibition of tumor growth as compared to controls: 57.1%

## D-Phe-Cys-Tyr-D-Trp-Orn-Ac5c-Pen-Thr-NH2 [SEQ ID NO: 3]
Animal I, day 0
  tumor volume, individual animal: 0 mm^3
Animal I, day 9
  tumor volume, individual animal: 560 mm^3
Animal I, day 13
  tumor volume, individual animal: 1946 mm^3
Animal I, day 18
  tumor volume, individual animal: 3177 mm^3
Animal I, day 21
  tumor volume, individual animal: 0 mm^3
Animal II, day 0
  tumor volume, individual animal: 0 mm^3
Animal II, day 9
  tumor volume, individual animal: 774 mm^3
Animal II, day 13
  tumor volume, individual animal: 1800 mm^3
Animal II, day 18
  tumor volume, individual animal: 3610 mm^3
Animal II, day 21
  tumor volume, individual animal: 4939 mm^3
Animal III, day 0
  tumor volume, individual animal: 0 mm^3
Animal III, day 9
  tumor volume, individual animal: 324 mm^3
Animal III, day 13
  tumor volume, individual animal: 1530 mm^3
Animal III, day 18
  tumor volume, individual animal: 4234 mm^3
Animal III, day 21
  tumor volume, individual animal: 7301 mm^3
[1]
  tumor volume, Avg: 0 mm^3
[2]
  tumor volume, Avg: 552 mm^3
[3]
  tumor volume, Avg: 1758 mm^3
[4]
  tumor volume, Avg: 3674 mm^3
[5]
  tumor volume, Avg: 4080 mm^3
Day 21
  percentage inhibition of tumor growth as compared to controls: 54.7%
